Here are results for 2 compounds from patent publication US20220241409A1, “WATER SOLUBLE ADJUVANT AND COMPOSITION CONTAINING SAME” (Sumitomo Dainippon Pharma Co., Ltd., priority 2019, published 2022).

Experiment [1] deals with MCA-A24/Kb-WT1 tumor cells. Nature of the experiment: In vivo suppression of tumor growth by vaccine (Test 15). The settings on record: 27th day after transplantation, HLA-A*24:02 transgenic mouse, vaccination 7 days before and after transplantation; versus vehicle (group a); group b p<0.05, group c (100 ng Example 2 per body) p<0.01. How it is done:
The HLA-A*24:02 transgenic mouse (C57BL/6CrHLA-A24/Kb) used herein is a mouse expressing a chimeric HLA (HLA-A*2402/Kb) of a human MHC (HLA-A*24:02) and a mouse MHC (H-2Kb) (Int. J. Cancer 2002; 100: 565-570). The mouse can induce […] CTLs with a peptide which can bind to human HLA-A*24:02.
A suspension of 3-methylcholanthrene in corn oil was administered to a HLA-A*24:02 transgenic mouse intradermally at the ventral region. From the tumor generated at the administration site, HLA-A*2402/Kb-expressing tumor cells were obtained. Cell lines established by stably expressing WT1 antigen peptide (SEQ ID No. 2) in the cells (herein, also referred to as MCA-A24/Kb-WT1 tumor cells) were suspended in Hanks' Balanced Salt Solution and intradermally transplanted to the ventral region of HLA-A*24:02 transgenic mouse (5×10^5 cells per mouse). The mice made to receive a vehicle (Group a), a vaccine (Group b), or a vaccine containing the compound prepared in Example 2 (Group c) were classified. Six mice per group were used. […] The tumor size was measured 27 days after the tumor transplantation and the tumor volume was calculated.

Experiment [2] has as its system HLA-A*24:02 transgenic mouse. Nature of the experiment: In vivo adjuvant activity, CTL induction with vaccine f, IFNγ ELISPOT (Test 19). The settings on record: 0.4 nmol per body added to vaccine f versus no compound; twice. How it is done: The in vivo adjuvant activity of the compound of Example 2 was evaluated in the following procedure. To a vaccine prepared by mixing Peptide SEQ ID No. 5 prepared in Reference example 19 with a preliminarily-emulsified composition (hereinafter, referred to as “vaccine f”) was added the compound prepared in Example 2 to prepare a vaccine. The vaccine was administered to a HLA-A*24:02 transgenic mouse, and the adjuvant activity of the vaccine was evaluated by the method of testing antigen-specific CTL induction. The CYTWNQMNL (SEQ ID No. 2) in Peptide SEQ ID No. 5 corresponds to an antigen peptide derived from an HLA-A*24:02-restricted WT1 protein.
The character for inducing CTLs specific to the antigen peptide (SEQ ID No. 2) by vaccine f was evaluated by measuring whether IFNγ can be produced upon stimulation of splenocytes from the mouse with the peptide. In addition, the character for exerting in vivo adjuvant activity by the compound in Example 2 was evaluated by comparing the number of CTLs induced by vaccine f and the number of CTLs induced by the vaccine prepared by adding the compound prepared in Example 2 to vaccine f, and checking presence or absence of the increase on the number.
Specifically, Peptide of SEQ ID No. 5 was dissolved in DMSO, and then diluted with water for injection to concentrations of 3 mg/mL. […]

Experiment [3] concerns HLA-A*02:01 transgenic mouse. Nature of the experiment: In vivo adjuvant activity, CTL induction with vaccine c, IFNγ ELISPOT (Test 9). The settings on record: 32.5 ng per body added to vaccine c versus no compound; twice, one week interval. How it is done: The in vivo adjuvant activity of the compounds prepared in Example 3 was evaluated in the following procedure. To a vaccine comprising Peptide SEQ ID No. 1 prepared in Reference example 1 with a preliminarily-emulsified composition (hereinafter, referred to as “vaccine c”) was added the compound prepared in Example 3 to prepare a vaccine. The vaccine was administered to a HLA-A*02:01 transgenic mouse, and the adjuvant activity of the vaccine was evaluated by the method of testing antigen-specific CTL induction.
Specifically, Peptide SEQ ID No. 1 was dissolved in DMSO, and then diluted with water for injection to concentrations of Peptide SEQ ID No. 1 of 2 mg/mL. The diluted peptide solution was mixed and emulsified with an equal volume of a preliminarily-emulsified composition to prepare vaccine c. Vaccine c was injected to mice intradermally at the tail base area in an amount for administering 200 μg of Peptide SEQ ID No. 1 per body. Or, in the step of preparing vaccine c, the compound prepared in Example 3 was added to the diluted peptide solution to prepare a vaccine, and the prepared vaccine was injected to mice intradermally at the tail base area in an amount for administering 200 μg of Peptide SEQ ID No. 1 per body, and 32.5 ng of the compound prepared in Example 3 per body. […] Then, after removal of the supernatant from the wells, stained spots on the ELISPOT plate were counted.

As for `CCCCOc1nc(N)c2[nH]c(=O)n(Cc3ccc(CN(C)CCOCCOCCOCCOCCO)nc3)c2n1` [Example 2, 6-amino-2-butoxy-9-{[6-(16-hydroxy-2-methyl-5,8,11,14-tetraoxa-2-azahexadecan-1-yl)pyridin-3-yl]methyl}-7,9-dihydro-8H-purin-8-one-trifluoroacetate], in experiment [1], the “growth of tumor cells (average tumor volume)” value is listed as “more potently suppressed”. The “CTL counts responsive to Peptide of SEQ ID No. 2” value in experiment [2] was “more”.

Regarding `CCCCOc1nc(N)c2[nH]c(=O)n(Cc3ccc(CN(C)CCOCCOCCOCCOCCO)cc3)c2n1` [Example 3, 6-amino-2-butoxy-9-{[4-(16-hydroxy-2-methyl-5,8,11,14-tetraoxa-2-azahexadecan-1-yl)phenyl]methyl}-7,9-dihydro-8H-purin-8-one], the “CTL counts responsive to Peptide of SEQ ID No. 1” value in experiment [3] is reported as “more”.
